Test system: 997537-175-T-J1-PDC complex spheroid viability
Assay: Anticancer human tumor 997537-175-T-J1-PDC patient-derived colon adenocarcinoma cell line growth inhibition [GQUAD]
Settings: for IC50: curve of first compound; for viability, T/C: stronger effect = lower value
How it was run: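 Tumor cells were grown as complex spheroids with HUVEC endothelial cells and mesenchymal stem cells as stroma. G-quadruplex stabilizers were combined with targeted agents over half-log dilutions from near the clinical Cmax, or from 10 microM.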

[1] = second compound 0.0316 µM, first compound 0.0316 µM
[2] = second compound 0.0316 µM, first compound 0.1 µM
[3] = second compound 0.0316 µM, first compound 0.316 µM
[4] = second compound 0.0316 µM, first compound 1 µM
[5] = second compound 0.0316 µM, first compound 3.16 µM
[6] = second compound 0.0316 µM, first compound 10 µM
[7] = second compound 0.1 µM, first compound 0.0316 µM
[8] = second compound 0.1 µM, first compound 0.1 µM
[9] = second compound 0.1 µM, first compound 0.316 µM
[10] = second compound 0.1 µM, first compound 1 µM
[11] = second compound 0.1 µM, first compound 3.16 µM
[12] = second compound 0.1 µM, first compound 10 µM
[13] = second compound 0.316 µM, first compound 0.0316 µM
[14] = second compound 0.316 µM, first compound 0.1 µM
[15] = second compound 0.316 µM, first compound 0.316 µM
[16] = second compound 0.316 µM, first compound 1 µM
[17] = second compound 0.316 µM, first compound 3.16 µM
[18] = second compound 0.316 µM, first compound 10 µM
[19] = second compound 1 µM, first compound 0.0316 µM
[20] = second compound 1 µM, first compound 0.1 µM
[21] = second compound 1 µM, first compound 0.316 µM
[22] = second compound 1 µM, first compound 1 µM
[23] = second compound 1 µM, first compound 3.16 µM
[24] = second compound 1 µM, first compound 10 µM
[25] = second compound 3.16 µM, first compound 0.0316 µM
[26] = second compound 3.16 µM, first compound 0.1 µM
[27] = second compound 3.16 µM, first compound 0.316 µM
[28] = second compound 3.16 µM, first compound 1 µM
[29] = second compound 3.16 µM, first compound 3.16 µM
[30] = second compound 3.16 µM, first compound 10 µM
[31] = second compound 10 µM, first compound 0.0316 µM
[32] = second compound 10 µM, first compound 0.1 µM
[33] = second compound 10 µM, first compound 0.316 µM
[34] = second compound 10 µM, first compound 1 µM
[35] = second compound 10 µM, first compound 3.16 µM
[36] = second compound 10 µM, first compound 10 µM
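Further: spheroids exposed to the agents for 7 days.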
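Wherever viability, T/C is given: 100% = DMSO vehicle control viability.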

SMILES: COc1cccc2c1C(=O)c1c(O)c3c(c(O)c1C2=O)CC(O)(C(=O)CO)CC3OC1CC(N)C(O)C(C)O1 (stereo unspecified) + CN(C)c1ccc(Nc2c3ccc(NC(=O)CCN4CCCC4)cc3nc3cc(NC(=O)CCN4CCCC4)ccc23)cc1
- IC50 (second compound 0.0316 µM): 6.55 µM
- IC50 (second compound 0.1 µM): 8.54 µM
- IC50 (second compound 0.316 µM): > 10 µM
- IC50 (second compound 1 µM): > 10 µM
- IC50 (second compound 3.16 µM): > 10 µM
- IC50 (second compound 10 µM): > 10 µM
- viability, T/C [1]: 98%
- viability, T/C [2]: 88.9%
- viability, T/C [3]: 99.1%
- viability, T/C [4]: 96.3%
- viability, T/C [5]: 71.7%
- viability, T/C [6]: 37.4%
- viability, T/C [7]: 111%
- viability, T/C [8]: 88.3%
- viability, T/C [9]: 77.6%
- viability, T/C [10]: 94.8%
- viability, T/C [11]: 96.2%
- viability, T/C [12]: 42.9%
- viability, T/C [13]: 89.5%
- viability, T/C [14]: 88.5%
- viability, T/C [15]: 101%
- viability, T/C [16]: 102%
- viability, T/C [17]: 94.6%
- viability, T/C [18]: 56.5%
- viability, T/C [19]: 63.7%
- viability, T/C [20]: 86.7%
- viability, T/C [21]: 101%
- viability, T/C [22]: 83.8%
- viability, T/C [23]: 97%
- viability, T/C [24]: 51.5%
- viability, T/C [25]: 74.8%
- viability, T/C [26]: 77.1%
- viability, T/C [27]: 107%
- viability, T/C [28]: 90%
- viability, T/C [29]: 99%
- viability, T/C [30]: 67.3%
- viability, T/C [31]: 94.1%
- viability, T/C [32]: 84.2%
- viability, T/C [33]: 102%
- viability, T/C [34]: 83.3%
- viability, T/C [35]: 81%
- viability, T/C [36]: 58.2%

SMILES: Nc1ccn(C2OC(CO)C(O)C2(F)F)c(=O)n1 (stereo unspecified) + CN(C)c1ccc(Nc2c3ccc(NC(=O)CCN4CCCC4)cc3nc3cc(NC(=O)CCN4CCCC4)ccc23)cc1
- IC50 (second compound 0.0316 µM): > 10 µM
- IC50 (second compound 0.1 µM): > 10 µM
- IC50 (second compound 0.316 µM): > 10 µM
- IC50 (second compound 1 µM): 9.28 µM
- IC50 (second compound 3.16 µM): > 10 µM
- IC50 (second compound 10 µM): > 10 µM
- viability, T/C [1]: 99.1%
- viability, T/C [2]: 104%
- viability, T/C [3]: 110%
- viability, T/C [4]: 64.1%
- viability, T/C [5]: 70.2%
- viability, T/C [6]: 69.5%
- viability, T/C [7]: 96.3%
- viability, T/C [8]: 98.5%
- viability, T/C [9]: 97.1%
- viability, T/C [10]: 72.3%
- viability, T/C [11]: 88.3%
- viability, T/C [12]: 68.8%
- viability, T/C [13]: 81.7%
- viability, T/C [14]: 97.8%
- viability, T/C [15]: 74.5%
- viability, T/C [16]: 74%
- viability, T/C [17]: 96.8%
- viability, T/C [18]: 77.6%
- viability, T/C [19]: 66.7%
- viability, T/C [20]: 86.9%
- viability, T/C [21]: 79.9%
- viability, T/C [22]: 87.5%
- viability, T/C [23]: 110%
- viability, T/C [24]: 47.5%
- viability, T/C [25]: 55.6%
- viability, T/C [26]: 80.3%
- viability, T/C [27]: 79.7%
- viability, T/C [28]: 81%
- viability, T/C [29]: 84.5%
- viability, T/C [30]: 66.2%
- viability, T/C [31]: 84%
- viability, T/C [32]: 85.1%
- viability, T/C [33]: 84.7%
- viability, T/C [34]: 89.5%
- viability, T/C [35]: 80.8%
- viability, T/C [36]: 63.5%

SMILES: O=c1[nH]cc(F)c(=O)[nH]1 + CN(C)c1ccc(Nc2c3ccc(NC(=O)CCN4CCCC4)cc3nc3cc(NC(=O)CCN4CCCC4)ccc23)cc1
- IC50 (second compound 0.0316 µM): > 10 µM
- IC50 (second compound 0.1 µM): > 10 µM
- IC50 (second compound 0.316 µM): > 10 µM
- IC50 (second compound 1 µM): > 10 µM
- IC50 (second compound 3.16 µM): > 10 µM
- IC50 (second compound 10 µM): > 10 µM
- viability, T/C [1]: 94.8%
- viability, T/C [2]: 90.6%
- viability, T/C [3]: 93.8%
- viability, T/C [4]: 75.5%
- viability, T/C [5]: 78.7%
- viability, T/C [6]: 59.7%
- viability, T/C [7]: 92.8%
- viability, T/C [8]: 83%
- viability, T/C [9]: 87.9%
- viability, T/C [10]: 66.7%
- viability, T/C [11]: 99.8%
- viability, T/C [12]: 84.4%
- viability, T/C [13]: 76.3%
- viability, T/C [14]: 85.6%
- viability, T/C [15]: 76.9%
- viability, T/C [16]: 76.7%
- viability, T/C [17]: 99.3%
- viability, T/C [18]: 87.9%
- viability, T/C [19]: 76.3%
- viability, T/C [20]: 65.8%
- viability, T/C [21]: 87.9%
- viability, T/C [22]: 79.3%
- viability, T/C [23]: 81.5%
- viability, T/C [24]: 99.3%
- viability, T/C [25]: 64.2%
- viability, T/C [26]: 92.6%
- viability, T/C [27]: 86.3%
- viability, T/C [28]: 90.7%
- viability, T/C [29]: 102%
- viability, T/C [30]: 87.4%
- viability, T/C [31]: 73.3%
- viability, T/C [32]: 79%
- viability, T/C [33]: 85.8%
- viability, T/C [34]: 80%
- viability, T/C [35]: 97%
- viability, T/C [36]: 63.5%

— PubChem BioAssay AID2060487 (Molecular Pharmacology Branch, DTP, NCI, 2025)
